Assay results published in publication PMC10949600, “Iso-mukaadial acetate and ursolic acid acetate bind to Plasmodium Falciparum heat shock protein 70: towards targeting parasite protein folding pathway” (BMC Chemistry, 2024).
Read-outs that look alike come from different tables or passages of the source.

Target: T1, PfHsp70-1 (Plasmodium falciparum, UniProt P11144)
T1 construct: recombinant PfHsp70-1 (pQE30/PfHsp70-1)
Assay: SPR, PfHsp70-1 immobilized on CMD 3-D gold chip by amine coupling
Type: binding
Source text: SPR, PfHsp70-1 immobilized on CMD 3-D gold chip by amine coupling on PfHsp70-1 | PfHsp70 binds to either of the two compounds within the micromolar range of affinity

T1 sequence (P11144 whole entry): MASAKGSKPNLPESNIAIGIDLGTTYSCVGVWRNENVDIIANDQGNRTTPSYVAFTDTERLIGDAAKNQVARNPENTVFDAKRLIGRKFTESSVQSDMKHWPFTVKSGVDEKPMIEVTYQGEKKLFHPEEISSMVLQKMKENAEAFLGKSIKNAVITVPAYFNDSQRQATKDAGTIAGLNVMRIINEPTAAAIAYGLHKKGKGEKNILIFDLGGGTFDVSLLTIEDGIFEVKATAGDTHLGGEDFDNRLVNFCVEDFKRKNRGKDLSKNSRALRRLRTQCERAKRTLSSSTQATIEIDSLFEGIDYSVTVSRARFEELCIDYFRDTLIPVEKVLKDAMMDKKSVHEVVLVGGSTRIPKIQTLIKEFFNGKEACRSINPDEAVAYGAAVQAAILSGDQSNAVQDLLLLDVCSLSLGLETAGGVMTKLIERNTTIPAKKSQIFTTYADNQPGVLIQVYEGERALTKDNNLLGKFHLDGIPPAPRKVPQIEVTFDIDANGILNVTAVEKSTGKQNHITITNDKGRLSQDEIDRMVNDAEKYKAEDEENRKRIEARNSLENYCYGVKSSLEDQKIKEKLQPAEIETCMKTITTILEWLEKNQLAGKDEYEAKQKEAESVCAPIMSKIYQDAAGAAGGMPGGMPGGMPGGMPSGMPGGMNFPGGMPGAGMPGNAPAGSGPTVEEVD

Compound	Kd	Kd (read-out: KD)
CC(=O)O[C@H]1CC[C@]2(C)[C@H]3CC=C4[C@@H]5[C@@H](C)[C@H](C)CC[C@]5(C(=O)O)CC[C@@]4(C)[C@]3(C)CC[C@H]2C1(C)C [UAA, ursolic acid acetate]	4.03 µM	–
iso-mukaadial acetate [IMA]	–	9.89 µM
